From ChEMBL document CHEMBL5154819 (Eur J Med Chem, 2022)

Experiments:
Mus musculus [1] = assay: Antinociceptive activity in acetic acid induced ICR mouse assessed as inhibition effect at 0.25 mg/kg, iv administered for 15 mins followed by acetic acid injection and measured within 15 mins; assay type: functional; conditions: 0.5 h, time 30 min
Mus musculus [2] = assay: Analgesic activity in acetic acid induced ICR mouse assessed as average writhing times at 0.13 mg/kg, iv administered for 15 mins followed by acetic acid injection and measured within 15 mins (reference value: 21.1 +/- 16.3); assay type: functional; conditions: time 30 min, 0.5 h
[3] = Toxicity in male Sprague-Dawley rat assessed as decrease in RBC level at 10 mg/kg , iv administered every day for 4 weeks; assay type: organism-based, Erythrocyte; set-up: scale not given: the % may be the effect or the level left; conditions: in vivo, 672 h
[4] = Toxicity in Beagle dog assessed as change in red cell distribution width at 10 mg/kg , iv administered every day for 4 weeks; assay type: organism-based, Canis lupus familiaris; conditions: in vivo, 672 h
[5] = Toxicity in NZW rabbit assessed as necrosis in endothelial cells at 10 mg/kg/day, iv administered once daily for 7 days and measured after 3 to 14 days by H and E staining based optical microscopy analysis; assay type: organism-based, Oryctolagus cuniculus; conditions: in vivo, time 3-14 day
[6] = Toxicity in male Sprague-Dawley rat assessed as decrease in hemoglobin level at 10 mg/kg , iv administered every day for 4 weeks; assay type: organism-based; set-up: scale not given: the % may be the effect or the level left; conditions: in vivo, 672 h
Mus musculus [7] = assay: Analgesic activity in acetic acid induced ICR mouse assessed as average writhing times at 0.50 mg/kg, iv administered for 15 mins followed by acetic acid injection and measured within 15 mins (reference value: 21.1 +/- 16.3); assay type: functional; conditions: dose 0.5 mg/kg, time 30 min
[8] = Drug metabolism in Sprague-Dawley rat plasma assessed as cis-(R)-2-(4-(((1S,2S)-2-hydroxycyclopentyl)methyl)phenyl)propanoic acid metabolite formation at 3 mg/kg, iv measured after 2 hrs by UHPLC-MS/MS analysis; assay type: ADME, organism-based; conditions: in vivo
Mus musculus [9] = assay: Analgesic activity in acetic acid induced ICR mouse assessed as average writhing times at 1 mg/kg, iv administered for 15 mins followed by acetic acid injection and measured within 15 mins (reference value: 21.1 +/- 16.3); assay type: functional; conditions: time 30 min, 0.5 h
[10] = Toxicity in Sprague-Dawley rat assessed as change in RBC level at 10 mg/kg , iv administered every day for 4 weeks and measured after 8 weeks; assay type: organism-based, Erythrocyte; conditions: in vivo, 1344 h
[11] = Toxicity in Sprague-Dawley rat assessed as effect on reticulocytes at 10 mg/kg , iv administered every day for 4 weeks; assay type: organism-based; conditions: in vivo, 672 h
[12] = Toxicity in Beagle dog assessed as effect on reticulocytes at 10 mg/kg, iv administered every day for 4 weeks; assay type: organism-based, Canis lupus familiaris; conditions: in vivo, 672 h
Mus musculus [13] = assay: Antinociceptive activity in acetic acid induced ICR mouse assessed as inhibition effect at 0.50 mg/kg, iv administered for 15 mins followed by acetic acid injection and measured within 15 mins; assay type: functional; conditions: 0.5 h, time 30 min
[14] = Toxicity in female Sprague-Dawley rat assessed as decrease in RBC level at 10 mg/kg , iv administered every day for 4 weeks; assay type: organism-based, Erythrocyte; set-up: scale not given: the % may be the effect or the level left; conditions: in vivo, 672 h
[15] = Drug metabolism in Beagle dog plasma assessed as cis-(R)-2-(4-(((1S,2S)-2-hydroxycyclopentyl)methyl)phenyl)propanoic acid metabolite formation at 3 mg/kg, iv measured after 2 hrs by UHPLC-MS/MS analysis; assay type: ADME, organism-based, Canis lupus familiaris; conditions: in vivo
Mus musculus [16] = assay: Antinociceptive activity in acetic acid induced ICR mouse assessed as inhibition effect at 0.13 mg/kg, iv administered for 15 mins followed by acetic acid injection and measured within 15 mins; assay type: functional; conditions: 0.5 h, time 30 min
[17] = Drug metabolism in Sprague-Dawley rat plasma assessed as cis-(R)-2-(4-(((1R,2R)-2-Hydroxycyclopentyl)methyl)phenyl)propanoic acid metabolite formation at 3 mg/kg, iv measured after 2 hrs by UHPLC-MS/MS analysis; assay type: ADME, organism-based; conditions: in vivo
[18] = Toxicity in female Sprague-Dawley rat assessed as decrease in hemoglobin level at 10 mg/kg , iv administered every day for 4 weeks; assay type: organism-based; set-up: scale not given: the % may be the effect or the level left; conditions: in vivo, 672 h
Mus musculus [19] = assay: Analgesic activity in acetic acid induced ICR mouse assessed as average writhing times at 0.25 mg/kg, iv administered for 15 mins followed by acetic acid injection and measured within 15 mins (reference value: 21.1 +/- 16.3); assay type: functional; conditions: time 30 min, 0.5 h
Rattus norvegicus [20] = organism: Rattus norvegicus; assay: Anti-hyperalgesic activity in carrageenan-induced mechanical hyperalgesia Sprague-Dawley rat model assessed as paw withdrawal threshold measured after 2.5 hrs by paw pressure test; assay type: functional
[21] = Toxicity in Sprague-Dawley rat assessed as change in red cell distribution width at 10 mg/kg , iv administered every day for 4 weeks; assay type: organism-based; conditions: in vivo, 672 h
[22] = Toxicity in Beagle dog assessed as change in RBC level at 10 mg/kg , iv administered every day for 4 weeks; assay type: organism-based, Canis lupus familiaris, Erythrocyte; conditions: in vivo, 672 h
[23] = Toxicity in Beagle dog assessed as change in mean corpuscular hemoglobin concentration at 10 mg/kg , iv administered every day for 4 weeks; assay type: organism-based, Canis lupus familiaris; conditions: in vivo, 672 h
Rattus norvegicus [24] = organism: Rattus norvegicus; assay: Antiinflammatory activity in carrageenan-induced Sprague-Dawley rat assessed as paw withdrawal threshold measured after 2.5 hrs by paw pressure test; assay type: functional
[25] = Toxicity in Sprague-Dawley rat assessed as change in hemoglobin level at 10 mg/kg , iv administered every day for 4 weeks and measured after 8 weeks; assay type: organism-based; conditions: in vivo, 1344 h
[26] = Solubility of the compound in pre-warmed distilled water at 500 mg measured after 30 mins by HPLC analysis; assay type: physicochemical
[27] = Plasma protein binding in human at 600 to 15000 ng/ml measured after 1 to 8 hrs by LC-MS/MS analysis; assay type: ADME, cell-free; conditions: dose lower 600 ng/ml, time lower 1 hrs, dose upper 15000 ng/ml, time upper 8 hrs, read-out: PPB
[28] = Toxicity in Sprague-Dawley rat assessed as effect on reticulocytes at 10 mg/kg , iv administered every day for 4 weeks and measured after 8 weeks; assay type: organism-based; conditions: in vivo, 1344 h
[29] = Plasma protein binding in CD-1 mouse at 600 to 15000 ng/ml measured after 6 hrs by LC-MS/MS analysis; assay type: ADME, cell-free; conditions: dose 600-15000 ng/ml, read-out: PPB
[30] = Drug metabolism in Sprague-Dawley rat plasma assessed as trans-(S)-2-(4-(((1S,2R)-2-Hydroxycyclopentyl)methyl)phenyl)propanoic acid metabolite formation at 3 mg/kg, iv measured after 2 hrs by UHPLC-MS/MS analysis; assay type: ADME, organism-based; conditions: in vivo
[31] = Drug metabolism in Beagle dog plasma assessed as trans-(R)-2-(4-(((1S,2R)-2-Hydroxycyclopentyl)methyl)phenyl)propanoic acid metabolite formation at 3 mg/kg, iv measured after 2 hrs by UHPLC-MS/MS analysis; assay type: ADME, organism-based, Canis lupus familiaris; conditions: in vivo
Mus musculus [32] = assay: Antinociceptive activity in acetic acid induced ICR mouse assessed as inhibition effect at 1 mg/kg, iv administered for 15 mins followed by acetic acid injection and measured within 15 mins; assay type: functional; conditions: 0.5 h, time 30 min
[33] = Drug metabolism in Sprague-Dawley rat plasma assessed as trans-(R)-2-(4-(((1S,2R)-2-Hydroxycyclopentyl)methyl)phenyl)propanoic acid metabolite formation at 3 mg/kg, iv measured after 2 hrs by UHPLC-MS/MS analysis; assay type: ADME, organism-based; conditions: in vivo
[34] = Toxicity in Sprague-Dawley rat assessed as change in mean corpuscular hemoglobin concentration at 10 mg/kg , iv administered every day for 4 weeks and measured after 8 weeks; assay type: organism-based; conditions: in vivo, 1344 h
[35] = Toxicity in NZW rabbit assessed as infiltration of inflammatory cells at 10 mg/kg/day, iv administered once daily for 7 days and measured after 3 to 14 days by H and E staining based optical microscopy analysis; assay type: organism-based, Oryctolagus cuniculus; conditions: in vivo, time 3-14 day
Mus musculus [36] = assay: Analgesic activity in iv dosed ICR mouse assessed as reduction in acetic acid induced writhing administered for 15 mins followed by acetic acid injection and measured within 15 mins; assay type: functional; conditions: 0.5 h, time 30 min
[37] = Plasma protein binding in Beagle dog at 600 to 15000 ng/ml measured after 6 hrs by LC-MS/MS analysis; assay type: ADME, cell-free, Canis lupus familiaris; conditions: dose 600-15000 ng/ml, read-out: PPB
[38] = Toxicity in Beagle dog assessed as change in hemoglobin level at 10 mg/kg , iv administered every day for 4 weeks; assay type: organism-based, Canis lupus familiaris; conditions: in vivo, 672 h
[39] = Drug metabolism in Beagle dog plasma assessed as cis-(R)-2-(4-(((1R,2R)-2-Hydroxycyclopentyl)methyl)phenyl)propanoic acid metabolite formation at 3 mg/kg, iv measured after 2 hrs by UHPLC-MS/MS analysis; assay type: ADME, organism-based, Canis lupus familiaris; conditions: in vivo
[40] = Toxicity in Sprague-Dawley rat assessed as red cell distribution width at 10 mg/kg , iv administered every day for 4 weeks and measured after 8 weeks; assay type: organism-based; conditions: in vivo, 1344 h
[41] = Plasma protein binding in cynomolgus monkey at 600 to 15000 ng/ml measured after 6 hrs by LC-MS/MS analysis; assay type: ADME, cell-free, Macaca fascicularis; conditions: dose 600-15000 ng/ml, read-out: PPB
[42] = Plasma protein binding in Sprague-Dawley rat at 600 to 15000 ng/ml measured after 6 hrs by LC-MS/MS analysis; assay type: ADME, cell-free; conditions: dose 600-15000 ng/ml, read-out: PPB
[43] = Toxicity in Sprague-Dawley rat assessed as change in mean corpuscular hemoglobin concentration at 10 mg/kg , iv administered every day for 4 weeks; assay type: organism-based; conditions: in vivo, 672 h

In the case of `C[C@H](C(=O)O)c1ccc(C[C@H]2CCC[C@@H]2O)cc1.NC(CO)(CO)CO`, the inhibition in vivo at 0.25 mg/kg (Mus musculus [1]) is reported as 39.3%, the Activity (Mus musculus [2]) is reported as 19 and the Activity [3] is reported as under 10%. For the same molecule, the Activity [4] was “Non-Toxic”, the Activity [5] was “Non-Toxic” and the Activity [6] was under 10%. The Activity (Mus musculus [7]) was 7.7, the Drug metabolism [8] was “Metabolite_Notdetected” and the Activity (Mus musculus [9]) was 6.7. For the same molecule, the Activity [10] was “Non-Toxic”, the Activity [11] was “Non-Toxic” and the Activity [12] was “Non-Toxic”. The inhibition in vivo at 0.5 mg/kg (Mus musculus [13]) was 63.5%, the Activity [14] was under 10% and the Drug metabolism [15] was “Metabolite_Notdetected”. For the same molecule, the inhibition in vivo at 0.13 mg/kg (Mus musculus [16]) was 10%, the Drug metabolism [17] was “Metabolite_Notdetected” and the Activity [18] was under 10%. For the same molecule, the Activity (Mus musculus [19]) was 12.8, the ED50 (Rattus norvegicus [20]) was 1.28 mg/kg and the Activity [21] was “Non-Toxic”. For the same molecule, the Activity [22] was “Non-Toxic”, the Activity [23] was “Non-Toxic” and the ED50 (Rattus norvegicus [24]) was 8.01 mg/kg. The Activity [25] was “Non-Toxic”, the solubility at 0.5 h [26] was 176 mg/mL and the fraction unbound [27] was under 0.05. The Activity [28] was “Non-Toxic”, the fraction unbound at 6 h [29] was under 0.3 and the Drug metabolism [30] was “Metabolite_Notdetected”. The Drug metabolism [31] was “Metabolite_Notdetected”, the inhibition in vivo at 1 mg/kg (Mus musculus [32]) was 68.2% and the Drug metabolism [33] was “Metabolite_Notdetected”. The Activity [34] was “Non-Toxic”, the Activity [35] was “Non-Toxic” and the ED50 (Mus musculus [36]) was 0.43 mg/kg. The fraction unbound at 6 h [37] was under 0.3, the Activity [38] was “Non-Toxic” and the Drug metabolism [39] was “Metabolite_Notdetected”. The Activity [40] was “Non-Toxic”, the fraction unbound at 6 h [41] was under 0.3 and the fraction unbound at 6 h [42] was under 0.3. For the same molecule, the Activity [43] was “Non-Toxic”.
